Drawing on patent publication US9216999B2, “Substituted pyrrolo[2,3-h][1,6]naphthyridines and compositions thereof as JAK inhibitors” (priority 2011, dated 2015), this text covers IC50 for nine compounds.

Assay type in all cases: biochemical
Common to all, as to settings: ATP 100 μM

One assay deals with JAK1 (Homo sapiens (Human), UniProt P23458). Kind of assay: Enzyme assay (Assay Example^a 1), JAK1.
The target in another assay is JAK2 (Homo sapiens (Human), UniProt O60674). Kind of assay: Enzyme assay (Assay Example^a 1), JAK2.
For the next assay, the target named is JAK3 (Homo sapiens (Human), UniProt P52333). Put plainly: Enzyme assay (Assay Example^a 1), JAK3.
In the next assay the target is Tyk2 (Homo sapiens (Human), UniProt P29597). Kind of assay: Enzyme assay (Assay Example^a 1), Tyk2.
Chain of Tyk2 (P29597 whole entry): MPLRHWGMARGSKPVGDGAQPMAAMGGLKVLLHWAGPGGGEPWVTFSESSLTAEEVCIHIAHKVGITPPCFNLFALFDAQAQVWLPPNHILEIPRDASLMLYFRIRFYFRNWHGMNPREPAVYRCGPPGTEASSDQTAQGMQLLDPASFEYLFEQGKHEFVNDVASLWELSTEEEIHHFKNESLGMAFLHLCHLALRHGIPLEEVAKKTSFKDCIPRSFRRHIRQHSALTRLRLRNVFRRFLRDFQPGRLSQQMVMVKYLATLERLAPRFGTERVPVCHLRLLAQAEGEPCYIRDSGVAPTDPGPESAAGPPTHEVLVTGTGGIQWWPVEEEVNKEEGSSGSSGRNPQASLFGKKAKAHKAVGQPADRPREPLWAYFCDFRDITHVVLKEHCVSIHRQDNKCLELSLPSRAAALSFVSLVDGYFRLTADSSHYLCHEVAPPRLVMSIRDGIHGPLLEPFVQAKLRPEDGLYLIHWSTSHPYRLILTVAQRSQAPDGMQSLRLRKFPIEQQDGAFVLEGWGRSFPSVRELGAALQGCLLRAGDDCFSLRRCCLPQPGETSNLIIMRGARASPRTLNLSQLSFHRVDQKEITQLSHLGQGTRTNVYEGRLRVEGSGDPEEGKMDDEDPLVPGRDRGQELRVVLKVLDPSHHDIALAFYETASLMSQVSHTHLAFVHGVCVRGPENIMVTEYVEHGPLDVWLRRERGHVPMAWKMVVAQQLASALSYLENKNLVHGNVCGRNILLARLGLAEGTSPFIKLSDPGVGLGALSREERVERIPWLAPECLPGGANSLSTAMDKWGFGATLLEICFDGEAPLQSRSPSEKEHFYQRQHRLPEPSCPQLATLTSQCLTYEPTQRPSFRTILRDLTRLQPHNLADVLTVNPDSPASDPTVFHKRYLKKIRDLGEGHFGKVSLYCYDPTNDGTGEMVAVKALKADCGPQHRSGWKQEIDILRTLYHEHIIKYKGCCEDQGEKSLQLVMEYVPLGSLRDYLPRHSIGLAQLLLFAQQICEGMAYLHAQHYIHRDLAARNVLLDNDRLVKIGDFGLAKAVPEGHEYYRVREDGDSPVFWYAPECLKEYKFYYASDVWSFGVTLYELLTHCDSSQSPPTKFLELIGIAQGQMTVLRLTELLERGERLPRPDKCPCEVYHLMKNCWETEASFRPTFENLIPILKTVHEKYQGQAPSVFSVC

Chain of JAK3 (P52333 whole entry): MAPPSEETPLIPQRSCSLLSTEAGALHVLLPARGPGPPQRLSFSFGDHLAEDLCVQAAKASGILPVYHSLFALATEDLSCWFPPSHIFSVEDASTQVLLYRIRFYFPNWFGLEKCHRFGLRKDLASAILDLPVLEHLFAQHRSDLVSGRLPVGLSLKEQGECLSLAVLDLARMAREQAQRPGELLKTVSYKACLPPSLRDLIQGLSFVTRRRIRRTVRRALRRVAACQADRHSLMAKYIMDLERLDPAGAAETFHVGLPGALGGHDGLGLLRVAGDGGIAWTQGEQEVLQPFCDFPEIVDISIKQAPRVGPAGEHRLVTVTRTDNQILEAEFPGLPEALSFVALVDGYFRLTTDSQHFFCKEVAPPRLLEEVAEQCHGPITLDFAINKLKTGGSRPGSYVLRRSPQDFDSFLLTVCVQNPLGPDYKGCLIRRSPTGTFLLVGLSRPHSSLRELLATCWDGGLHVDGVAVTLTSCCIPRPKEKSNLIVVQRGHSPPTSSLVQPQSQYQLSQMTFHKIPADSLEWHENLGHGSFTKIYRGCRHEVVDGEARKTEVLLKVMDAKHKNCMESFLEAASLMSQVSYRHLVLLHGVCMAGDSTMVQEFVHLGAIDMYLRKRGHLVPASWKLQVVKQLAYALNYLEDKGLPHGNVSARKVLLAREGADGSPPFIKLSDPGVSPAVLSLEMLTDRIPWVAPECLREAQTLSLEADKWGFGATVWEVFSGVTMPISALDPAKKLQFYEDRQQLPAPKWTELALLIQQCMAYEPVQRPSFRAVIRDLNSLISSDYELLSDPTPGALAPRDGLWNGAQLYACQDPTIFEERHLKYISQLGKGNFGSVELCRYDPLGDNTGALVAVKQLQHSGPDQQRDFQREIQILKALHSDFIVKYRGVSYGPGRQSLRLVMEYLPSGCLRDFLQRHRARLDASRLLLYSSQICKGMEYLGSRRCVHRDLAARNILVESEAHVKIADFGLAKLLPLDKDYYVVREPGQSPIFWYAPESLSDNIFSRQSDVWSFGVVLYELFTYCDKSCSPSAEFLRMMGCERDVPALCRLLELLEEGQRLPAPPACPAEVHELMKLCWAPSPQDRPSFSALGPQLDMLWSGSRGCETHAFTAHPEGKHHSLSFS

In general, IC50 refers to the concentration that inhibits the measured activity by half. Low values mean greater potency in that assay, high ones weaker potency in that assay. Regarding `O=C(NCCc1ccc(Cl)cc1)[C@H]1CC[C@H](c2nnn3cnc4[nH]ccc4c23)CC1` [compound 352, trans-N-(4-chlorophenethyl)-4-(7H-pyrrolo[3,2-e][1,2,3]triazolo[1,5-c]pyrimidin-1-yl)cyclohexanecarboxamide], the IC50 is 0.005 µM against JAK1, 0.029 µM against JAK2, more than 1 µM at JAK3 and more than 1 µM on Tyk2.
For `O=C(NC[C@@H](O)c1ccccc1)[C@H]1CC[C@H](c2nnn3cnc4[nH]ccc4c23)CC1` [compound 353, trans-N-[(S)-2-hydroxy-2-phenylethyl]-4-(7H-pyrrolo[3,2-e][1,2,3]triazolo[1,5-c]pyrimidin-1-yl)cyclohexanecarboxamide], the IC50 was found to be 0.0029 µM against JAK1, 0.031 µM on JAK2, 0.35 µM against JAK3 and 0.46 µM at Tyk2.
The like results for `N#CCNC(=O)[C@H]1CC[C@H](c2nnn3cnc4[nH]ccc4c23)CC1` [compound 355, trans-N-(cyanomethyl)-4-(7H-pyrrolo[3,2-e][1,2,3]triazolo[1,5-c]pyrimidin-1-yl)cyclohexanecarboxamide] were, in that order, 0.0042 µM, 0.033 µM, more than 1 µM and 0.15 µM.
Turning to `N#CCCNC(=O)[C@H]1CC[C@H](c2nnn3cnc4[nH]ccc4c23)CC1` [compound 356, trans-N-(2-cyanoethyl)-4-(7H-pyrrolo[3,2-e][1,2,3]triazolo[1,5-c]pyrimidin-1-yl)cyclohexanecarboxamide], the IC50 was 0.0036 µM against JAK1, 0.036 µM against JAK2, more than 1 µM at JAK3 and 0.16 µM against Tyk2.
Taken in the same sequence, the figures for `N#C[C@H]1CCN(C(=O)[C@H]2CC[C@H](c3nnn4cnc5[nH]ccc5c34)CC2)C1` [compound 357, (S)-1-[trans-4-(7H-pyrrolo[3,2-e][1,2,3]triazolo[1,5-c]pyrimidin-1-yl)cyclohexanecarbonyl]pyrrolidine-3-carbonitrile] were 0.067 µM, 0.33 µM, more than 1 µM and 0.87 µM.
Taken in the same sequence, the figures for `O=C([C@H]1CC[C@H](c2nnn3cnc4[nH]ccc4c23)CC1)N1CC[C@H](O)C1` [compound 358, [trans-4-(7H-pyrrolo[3,2-e][1,2,3]triazolo[1,5-c]pyrimidin-1-yl)cyclohexyl][(S)-3-hydroxypyrrolidin-1-yl]methanone] were 0.63 µM, 0.91 µM, more than 1 µM and more than 1 µM.
The like results for `O=C(NC1CC1)[C@H]1CC[C@H](c2nnn3cnc4[nH]ccc4c23)CC1` [compound 359, trans-N-cyclopropyl-4-(7H-pyrrolo[3,2-e][1,2,3]triazolo[1,5-c]pyrimidin-1-yl)cyclohexanecarboxamide] were, in that order, 0.042 µM, 0.22 µM, more than 1 µM and 0.56 µM.
`O=C(NCCO)[C@H]1CC[C@H](c2nnn3cnc4[nH]ccc4c23)CC1` [compound 360, trans-N-(2-hydroxyethyl)-4-(7H-pyrrolo[3,2-e][1,2,3]triazolo[1,5-c]pyrimidin-1-yl)cyclohexanecarboxamide]: the 50% inhibitory concentration (IC50) on JAK1 is 0.026 µM; against JAK2, 0.1 µM; at JAK3 it was more than 1 µM; on Tyk2, 0.33 µM.
The like results for `O=C([C@H]1CC[C@H](c2nnn3cnc4[nH]ccc4c23)CC1)N1CC(O)C1` [compound 361, [trans-4-(7H-pyrrolo[3,2-e][1,2,3]triazolo[1,5-c]pyrimidin-1-yl)cyclohexyl](3-hydroxyazetidin-1-yl)methanone] were, in that order, 0.089 µM, 0.25 µM, more than 1 µM and more than 1 µM.
